Results published in patent US6670339B1, “Use of sulfated oligosaccharides in lowering blood triglyceride levels” (The Australian National University, priority 1997, dated 2003).

How the values were obtained:
[1] = tested on: blood triglyceride levels; assay: Blood triglyceride levels in mice after alternate daily s.c. injection; assay type: in vivo, CBA/h female mice; settings: 50 mg/kg s.c. on alternate days, 4 injections, 24 hours after last injection; control 1.11±0.1
Description: Thus, 10 CBA/h female mice 8-10 weeks old were weighed and divided into two groups of 5 mice each based on weight. Mice in the control group were injected with sterile normal saline solution 100 μl s.c. on alternate days for a total of 4 injections. Mice in the treatment group were injected with the sulfated mannopentaose phosphate at a dose of 50 mg/kg s.c. on alternate days for a total of 4 injections. Twenty-four hours following the last injection, blood (50 μl) was collected from the tail veins of each animal and assayed for triglyceride levels (Sigma, Triglyceride—GPO-Trinder). Blood triglyceride levels in the control group averaged 1.11±0.1 mM and blood triglyceride levels in the treatment group averaged 0.64±0.04 mM.

[2] = molecular target: T1, bovine milk lipoprotein lipase (Bos taurus, UniProt P11151); assay: Inhibition of binding of biotinylated heparin/heparan sulfate to immobilised lipoprotein lipase
T1 construct: purified from bovine milk as previously described; from tissue; host or cells: bovine milk
T1 sequence (P11151 29-478): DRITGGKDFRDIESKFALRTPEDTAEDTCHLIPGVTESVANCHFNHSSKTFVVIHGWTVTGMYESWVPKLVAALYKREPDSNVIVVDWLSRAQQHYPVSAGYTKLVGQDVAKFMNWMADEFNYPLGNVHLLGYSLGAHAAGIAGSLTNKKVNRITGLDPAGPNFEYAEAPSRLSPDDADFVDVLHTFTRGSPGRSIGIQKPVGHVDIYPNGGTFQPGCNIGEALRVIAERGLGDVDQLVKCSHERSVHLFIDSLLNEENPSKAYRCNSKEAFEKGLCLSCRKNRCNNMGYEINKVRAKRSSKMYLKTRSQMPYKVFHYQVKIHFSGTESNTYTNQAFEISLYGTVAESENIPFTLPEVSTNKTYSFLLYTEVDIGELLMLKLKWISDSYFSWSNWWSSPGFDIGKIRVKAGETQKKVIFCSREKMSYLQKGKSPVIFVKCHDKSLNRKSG
Description: As a more rapid and direct means of measuring the ability of different sulfated oligosaccharides to release lipoprotein lipase from the endothelium, an in vitro assay for this effect was developed. The assay involved immobilising lipoprotein lipase (10 μg/ml in PBS, 15 hr, 4° C.), purified from bovine milk as previously described^12, in 96 well plastic microplates (50 μl/well). Non-specific binding sites were then blocked by the addition of 200 μl/well of PBS containing 1% (w/v) bovine serum albumin (BSA) for 2 hr at 4° C. Following three washes with 200 μl/well of PBS/0.05% Tween 20 (PBST), 50 μl/well of either biotinylated bovine lung heparin or biotinylated porcine mucosal heparan sulfate (Sigma), used at either 1 or 10 μg/ml, was added and incubated for 2 hr at 4° C. Following three washes with PBST, 50 μl/well of europeum-streptavidin (1 ng/ml in PBS/1% BSA) was added for 1 hr at 4° C., the plate again washed three times with PBST, enhancement solution (50 μl/well) added and bound europeum measured by time resolved fluorescence detection using a Delfia Research Fluorometer (Wallac, Turku, Finland). Inhibition assays measured the ability of different sulfated oligosacchandes to inhibit the binding of biotinylated heparan/heparin sulfate to the immobilised lipoprotein lipase enzyme.

[3] = tested on: blood triglyceride levels; assay: Blood triglyceride levels in mice under continuous infusion by mini-osmotic pump; assay type: in vivo, CBA/h female mice
Description: Thus, 10 CBA/h female mice 8-10 weeks old were weighed and divided into two groups of 5 mice each based on weight. Mice in the control group were implanted subcutaneously with a mini-osmotic pump (Alzet 2001) containing sterile normal saline solution. Mice in the treatment group were implanted subcutaneously with a mini-osmotic pump containing the sulfated mannopentaose phosphate which delivered the sulfated mannopentaose phosphate at a dose of 50 mg/kg/day. At the end of the 7 day period over which the mini-osmotic pumps delivered their payload, blood (50 μl) was collected from the tail veins of mice from both groups and assayed for triglycerides (Sigma, Triglyceride—GPO-Trinder). Triglyceride levels in the blood from mice in the control group averaged 1.49±0.23 mM and triglyceride levels in the blood of mice in the treatment group averaged 1.01±0.07 mM. One week following the treatment period, blood triglyceride levels were measured again in each group and levels in the treatment group had returned to normal, or those approximating the control group. Thus, at this point levels of triglycerides in the blood of mice in the control group averaged 1.29±0.08 mM and levels of triglycerides in the blood of mice in the treatment group averaged 1.27±0.06 mM.

[4] = tested on: blood triglyceride levels; assay: Blood triglyceride levels in male and female Lewis rats after 7 days of twice daily s.c. injection; assay type: in vivo
Description: 2. […] Thus, on day 0 the rats were weighed and placed into three groups of the same sex, containing three rats each based on weight. On every subsequent morning their weights were recorded. Each morning beginning on day 1 at approximately 8.00 AM and each evening at approximately 8.00 PM the rats were injected in the following manner. The control groups received sterile normal saline solution 100 μl s.c. The first treatment groups of male and female rats received the sulfated mannopentaose phosphate, at a dose of 10 mg/kg s.c. in 100 μl of sterile saline solution (total daily dose 20 mg/kg). The second treatment groups of male and female rats received the sulfated mannopentaose phosphate at a dose of 50 mg/kg s.c. (total daily dose 100 mg/kg). This injection routine was repeated for a total of 7 days.
On morning of day 8 of the experiment, the rats were anaesthetised and blood was taken for triglyceride analysis. Triglyceride levels were determined using a commercially available assay kit (Sigma, Triglyceride—GPO-Tinder). […] Thus, blood triglyceride levels in the male control group averaged 1.7±0.21 mmol/L, in the […] male treatment group averaged 0.9±0.2 mmol/L and in the 100 mg/kg/day male treatment group averaged 0.3±0.0 mmol/L. Blood triglyceride levels in the female control group averaged 1.13±0.19 mmol/L, and in the 20 mg/kg/day female treatment group averaged 0.5±0.0 mmol/L and in the 100 mg/kg/day female treatment group averaged 0.17±0.03 mmol/L.

[5] = tested on: serum triglyceride levels; assay: Serum triglyceride lowering by glycosaminoglycans and sulfated oligosaccharides in mice; assay type: in vivo, CBA/h female mice; settings: 50 mg/kg s.c., 2 hours after injection
Description: FIG. 3. Ability of different glycosaminoglycans and sulfated oligosaccharides to lower serum triglyceride levels in CBA mice. Compounds were injected s.c. at a dose of 50 mg/kg, blood samples taken 2 hours later and assayed for triglyceride content. Each histogram is the mean±SEM (n=3) for each treatment.
Mice (CBA/h female mice 8-10 weeks old) were injected s.c. with a range of glycosaminoglycans and sulfated oligosaccharides at a dose of 50 mg/kg and 2 hours later mice were anaesthetised, blood was collected via cardiac puncture and allowed to clot and serum triglyceride levels measured using a commercially available kit (Sigma, Triglyceride—GPO-Trinder). […] The only other compound with some activity was suramin, a sulfonated compound which has previously been used as an angiogenesis and heparanase inhibitor.

- IC50, inhibition of binding of Biotinylated Heparin (1 μg/ml) to lipoprotein lipase ([2]; biotinylated bovine lung heparin 1 μg/ml): 1 µg/mL
- IC50, inhibition of binding of Biotinylated Heparin (10 μg/ml) to lipoprotein lipase ([2]; biotinylated bovine lung heparin 10 μg/ml): 3 µg/mL
- IC50, inhibition of binding of Biotinylated Heparan Sulfate (10 μg/ml) to lipoprotein lipase ([2]; biotinylated porcine mucosal heparan sulfate 10 μg/ml): 0.1 µg/mL
- inhibitory activity on lipoprotein lipase binding to heparin/heparan sulfate, in words ([2]; summary of Table 1): potent inhibitors
Substance: sulfated mannopentaose phosphate [PI-88 (15 SO4/molecule)]
- blood triglyceride levels [1]: 0.64 ± 0.04 mM
- triglyceride levels in the blood ([3]; 50 mg/kg/day by s.c. mini-osmotic pump, end of 7 day period, control 1.49±0.23): 1.01 ± 0.07 mM
- triglyceride levels in the blood ([3]; one week following the 7 day infusion of 50 mg/kg/day, control 1.29±0.08): 1.27 ± 0.06 mM
- blood triglyceride levels ([4]; female Lewis rats, 20 mg/kg/day s.c., blood on day 8, control 1.13±0.19): 0.5 ± 0.0 mmol/L
- blood triglyceride levels ([4]; female Lewis rats, 100 mg/kg/day s.c., blood on day 8, control 1.13±0.19): 0.17 ± 0.03 mmol/L
- blood triglyceride levels ([4]; male Lewis rats, 100 mg/kg/day s.c., blood on day 8, control 1.7±0.21): 0.3 ± 0.0 mmol/L
- blood triglyceride levels ([4]; male Lewis rats, 'mg/kg/day' group (lower dose), s.c. twice daily, blood on day 8, control 1.7±0.21): 0.9 ± 0.2 mmol/L
- effect on serum triglyceride levels, in words [5]: lowered serum triglyceride levels
